Measurements: patent US20240198337A1, “Bone Marrow on a Chip” (NEW YORK UNIVERSITY, priority 2021, published 2024)

Legend:
murine Ph+ B-ALL cells [1] = assay: Drug resistance testing: B-ALL cell viability in 3D hydrogel devices (Calcein-AM/DAPI); format: cell-based; conditions: NIL 1 μM, PRE 1 μM, VCR 0.1 μM; for viability of B-ALL cells in perivascular versus endosteal niche: 2-day treatment; for B-ALL eradication (viability): absence of niche cells; for B-ALL eradication (viability) / B-ALL drug-induced cell death (chemo-resistance): 48 hr; for B-ALL drug-induced cell death (chemo-resistance): presence of niche cells
Protocol: The outcome of drugs was defined by the viability of B-ALL cells as a cytotoxic end point after drug treatment. B-ALL cells were cultured alone or co-cultured with niche cells in 3D hydrogel devices for 24 hr, and then incubated with 1 μM nilotinib (NIL, Cayman Chemical), 1 μM prednisone (PRE, Sigma), and 0.1 μM vincristine (VCR, Sigma) for 48 hr. The cell viability was quantitatively determined by using Calcein-AM (Thermo Fischer Scientific) and DAPI, which respectively stained the live and dead cells. Briefly, cells were rinsed thrice with PBS and incubated with Calcein-AM and DAPI ([…] and 5 μg/mL in PBS or medium) solution for 30 min at 37° C., followed by a final rinse with PBS. Afterward, cells were observed under a fluorescence microscope, and cellular viability was quantitatively measured by counting the number of objects in the green (live cells) and red (dead cells) channels. Untreated groups of B-ALL cells were used as controls to benchmark the drug resistance of different groups.

murine B-ALL cells [2] = assay: Combinational drug regimens in the murine leukemic niche model; format: cell-based; conditions: 5 μg/mL AMD, 1 μg/mL BIO or 10 μM BAY combined with NIL, PRE or VCR for 48 hr
Protocol: The 3D biomimetic leukemic niche model was exploited to test the combinational drug regimens in vitro. Generally, the murine leukemic niche models were cultured for 24 hr after fabrication, then respectively administrated with various pharmaceuticals [i.e. 5 μg/mL AMD3100 (AMD), 1 μg/mL BIO5192 (BIO), and 10 μM BAY 11-7082 (BAY), correspondingly], and concomitantly treated with 1 μM NIL, 1 μM PRE or 0.1 μM VCR for 48 hr. The viability of B-ALL cells was measured by the DAPI staining as described above.
The following investigation concerned whether co-targeting niche-derived pro-survival signals (CXCR4/CXCL12, VCAM-1/VLA-4, and NF-κB signaling) using either CXCR4 inhibitor (AMD), VLA-4 inhibitor (BIO), or NF-κB inhibitor (BAY) could improve the responsiveness of B-ALL-targeting chemotherapeutics. B-ALL blasts and niche cells (containing ECs and MSCs) were co-cultured for 24 hr in the Leukemia-on-a-Chip, and then administered individual niche-targeting compounds in combination with either NIL, PRE or VCR for 48 hr, after which B-ALL cell viability was measured. […] The lack of response to VLA-4 treatment may be due to VLA-4 blockade broke the leukemia dormancy to compensate the B-ALL death.

murine B-ALL cells [3] = assay: B-ALL cell adhesion onto niche cells with or without adhesion blockade; format: cell-based; conditions: VLA-4 blockade; 24 hours on niche cell monolayer
Protocol: (FIG. 11A) Experimental setup for testing murine B-ALL cell adhesion onto niche cells [i.e. ECs (C166), MSCs (OP9), and osteoblasts (MC3T3)] with or without adhesion blockade. B-ALL cells were plated into the dishes with niche cell monolayer and cultured for 24 hours, followed by five times washing with warm PBS. The images were then taken with 20× objective. (FIG. 11B) Adhered B-ALL cells were manually counted and plotted as cell number per filed. Each condition has 3 replicates with >10 images being counted. One-way ANOVA followed by Tukey's post hoc test (n.s., not significant, *p<0.05, **p<0.01).

NF-κB = NF-κB activation (nuclear translocation) in B-ALL cells in Leukemia-on-a-Chip; format: cell-based, murine; conditions: B-ALL cells with niche cells
Source text: FIG. 8A through FIG. 8J depicts the results of niche cells promoting leukemia progression via cytokine and adhesive signaling. (FIG. 8A) The regional CXCR4 distribution on murine B-ALL cells cultured with or without niche cells. (FIG. 8B) The quantified result corresponding to (FIG. 8A). (FIG. 8C) Membrane-based ELISA analysis of CXCL12 expression level of niche cells (ECs and MSCs). (FIG. 8D) The quantified result corresponding to (FIG. 8C). (FIG. 8E) The representative image showing B-ALL cells co-localized with niche cells via VCAM-1/VLA-4 signaling. (FIG. 8F) The representative images showing nuclear translocation of NF-κB in B-ALL cells. (FIG. 8G) NF-κB activation in B-ALL cells with or without niche cells and under treatments with CXCR4 inhibitor, AMD3100 (AMD) and VLA-4 inhibitor, BIO5192 (BIO). The ratios were manually quantified from 3 experimental replicates (N>200). One-way ANOVA followed by Tukey's post hoc test. […] (FIG. 8I) The quantification of NF-κB activation in human NALM-6, 697, RS(4; 11), and UOCB1 blasts within their leukemia niches. The ratios were manually measured from 3 experimental replicates (N>150). (FIG. 8J) The quantification of NF-κB activation in patient-derived B-ALL blasts within engineered leukemia niches. The ratios for various B-ALL blasts were manually measured from 3 technical replicates (N>20). […]

murine Ph+ B-ALL cells [4] = assay: Drug resistance testing: B-ALL cell viability in 3D hydrogel devices (Calcein-AM/DAPI); format: cell-based; conditions: NF-κB blockade

Row | Structure (SMILES) | viability of B-ALL cells in perivascular versus endosteal niche (murine Ph+ B-ALL cells [1]) | B-ALL eradication (viability) (murine Ph+ B-ALL cells [1]) | B-ALL drug-induced cell death (chemo-resistance) (murine Ph+ B-ALL cells [1]) | responsiveness of B-ALL blasts to tumor-targeting agents (B-ALL killing) on niche co-targeting (murine B-ALL cells [2]) | nuclear translocation of NF-κB in B-ALL cells (NF-κB) | also measured
1 | C[C@]12C=CC(=O)C=C1CC[C@@H]1[C@@H]2C(=O)C[C@@]2(C)[C@H]1CC[C@]2(O)C(=O)CO [prednisone] | a stronger dormancy and chemo-resistance of B-ALL cells in the endosteal niche | efficient B-ALL eradication | chemo-resistance phenomenon was confirmed | – | – | B-ALL drug-induced cell death (chemo-resistance) (murine Ph+ B-ALL cells [1]; listed as PRE): partial rescue of drug-induced cell death
2 | Cc1ccccc1NC(=O)Nc1ccc(CC(=O)N(C)[C@@H](CC(C)C)C(=O)NCC[C@H](NC(=O)[C@@H]2CCCN2S(=O)(=O)c2cc(Cl)cc(Cl)c2)C(=O)O)cc1 [BIO5192] | – | – | – | no significant effect on the responsiveness of B-ALL blasts to tumor-targeting agents | suppressed the nuclear translocation of NF-κB in B-ALL cells | intercellular adhesion of B-ALL cells onto niche cells (murine B-ALL cells [3]): significantly decrease the intercellular adhesion of B-ALL cells onto niche cells
3 | Cc1cn(-c2cc(NC(=O)c3ccc(C)c(Nc4nccc(-c5cccnc5)n4)c3)cc(C(F)(F)F)c2)cn1 [nilotinib] | a stronger dormancy and chemo-resistance of B-ALL cells in the endosteal niche | efficient B-ALL eradication | chemo-resistance phenomenon was confirmed | – | – | B-ALL drug-induced cell death (chemo-resistance) (murine Ph+ B-ALL cells [1]; listed as NIL): partial rescue of drug-induced cell death
4 | c1cc(CN2CCCNCCNCCCNCC2)ccc1CN1CCCNCCNCCCNCC1 [AMD3100] | – | – | – | significantly reversed the chemo-protective activity of niche cells | suppressed the nuclear translocation of NF-κB in B-ALL cells | –
5 | Cc1ccc(S(=O)(=O)/C=C/C#N)cc1 [BAY 11-7082] | – | – | – | significantly reversed the chemo-protective activity of niche cells | – | B-ALL survival (cell viability) (murine Ph+ B-ALL cells [4]; absence of niche cells): significantly decreased B-ALL survival; B-ALL survival (cell viability) (murine Ph+ B-ALL cells [4]; co-culture with niche cells): partially rescued B-ALL cell survival from BAY treatment
